Source: patent US9981025B2, “Anti-drug vaccines” (priority 2009, dated 2018)

Assay: Cocaine degradation in mouse sera by mass spectrometry
Type: in vitro ADME
Text: FIG. 15. Degradation of cocaine in non-immune mouse serum (NIS) and in non-immune mouse serum diluted in PBS (PBS/NIS) by mass spectrometry.
FIGS. 16A-B. Rates of cocaine degradation in (A) non-immune mouse sera and (B) 5 immune mouse sera measured by a decrease in peak area (y-axis) of the cocaine peak generated by mass-spectrometry analysis.
The kinetics of cocaine degradation in immune and non-immune mouse sera was then studied by mass spectroscopy to discern the pharmacological effects of anti-coc antibodies. Although degradation rates were nearly uniform in all non-immune mice (FIG. 16A), significant differences existed in the rates in immune mice, depending on the titer of anti-coc antibodies in the plasma (FIG. 16B).

## COC(=O)[C@@H]1C2CCC(C[C@@H]1OC(=O)c1ccccc1)N2C (some centres unmarked) [cocaine]
Immune mouse sera, with increasing titer of anti-coc antibodies
  rate of cocaine degradation: degradation rates conversely decreased
non-immune mouse serum diluted in PBS versus undiluted
  rate of cocaine degradation: decreased rate of cocaine degradation
